Literature values as cited in patent US10138195B2, “Organic compounds” (Givaudan, S. A., priority 2014, dated 2018).
Like-named read-outs stand apart in the source and are kept apart here.

Assays:
[1] = test system: reproductive organs of male rats
[2] = test system: reproductive organs of male dogs
[3] = rats
[4] = dogs
[5] = test system: glucose synthesis and fatty acid synthesis; conditions: in vitro (McCune et al)
male rats = male rats (Hunter et al.; Cagen et al.)

Effects in studies (mice)	Effects in studies (guinea-pigs)	Effects in studies (primates)	Structure (SMILES)	Effects on the reproductive organs [1]	Effects on the reproductive organs [2]	Enzymatic degradation product [3]	Enzymatic degradation product [4]	Effect on glucose synthesis and fatty acid synthesis [5]	Testicular effects (male rats)
No effects	No effects	No effects	CC(C=O)Cc1ccc(C(C)(C)C)cc1 (stereo not drawn) [Lilial™, 3-(4-tert-butylphenyl)-2-methylpropanal]	toxic effects on the reproductive organs	toxic effects on the reproductive organs	enzymatically degraded in rats and dogs to tert-butyl benzoic acid (t-BBA)	enzymatically degraded in rats and dogs to tert-butyl benzoic acid (t-BBA)		
			CC(C)(C)c1ccc(C(=O)O)cc1 [tert-butyl benzoic acid]					inhibit glucose synthesis and fatty acid synthesis	cause testicular effects
